Laboratory results from PubChem BioAssay AID1918932 (Molecular Pharmacology Branch, DTP, NCI, 2023).
Values joined by “and” are separate entries in the source; they are usually repeats but may differ in a detail not shown here. Identical values can stand only once. One block for each molecule: values may come before it.

Test system: 171881-019-R-J1-PDC complex spheroid viability
Assay: Anticancer human tumor 171881-019-R-J1-PDC patient-derived invasive breast carcinoma cell line growth inhibition
Conditions: for viability, T/C: stronger effect = lower value; for IC50: curve of compound
Source text: Multicellular complex tumor spheroid response to LSD1 Inhibitor Iadademstat in combination with a variety of drugs and investigational agents in selected tumor cell lines
The current study was undertaken to assess response to LSD1 inhibitors in combination with standard-of-care drugs and investigational agents in solid tumor complex spheroid models as well as in the K-562 leukemia. Complex spheroids include a stromal component modeled by human endothelial cells (HUVEC) and fibroblasts modeled by human mesenchymal stem cells (MSCs). The concentration ranges selected for each drug and investigational agent were based upon clinically achievable concentrations if the clinical Cmax of the agent was known.
Compounds. The drugs and investigational agents used in this study are listed on Table 1. All of the agents used, including staurosporine (NSC755774) and gemcitabine (NSC613327), were obtained from the Developmental Therapeutics Program, NCI. FDA-approved anticancer drugs are available from the NCI at http://dtp.nci.nih.gov/branches/dscb/oncology_drugset_explanation.html. Drugs and investigational agents were >95% pure by proton nuclear magnetic resonance (NMR) and liquid chromatography/mass spectrometry (LC/MS). Stock solutions were prepared at 400x in DMSO, stored at -70 degrees C, and diluted in fresh medium prior to their use. The final concentration of DMSO in cell culture wells never exceeded 0.25% (v/v). The FDA-approved anticancer drug set is available from the Developmental Therapeutics Program at https://dtp.cancer.gov/organization/dscb/obtaining/available_plates.htm. All drugs and investigational agents were tested over a range starting from a high concentration at or near the clinical Cmax and decreasing in half-log increments. If the clinical Cmax for an agent had not been determined, the highest concentration tested was 10 microM.
Cell Lines. The patient-derived cancer cell (PDC) lines: 292921-168-R-J2-PDC, K24384-001-R-PDC, and 521955-158-R2-J5-PDC pancreatic carcinomas, 556581-035-R-J1 ovarian carcinoma, 324938-238-R-J1-PDC, 855422-203-R-J1-PDC and 883617-216-R-J1-PDC urothelial bladder carcinomas, 743489-274-T-PDC renal cell carcinoma, 138582-R-J1 Merkel cell tumor, K60290-347-R-J1 and K57222-313-R-J1-PDC glioblastomas, 653999-131-R-J2-PDC, LG0703-F948-PDC, and 349418-098-R-PDC non-small cell lung carcinomas, 885512-296-R-J2-PDC, 171881-019-R-J1-PDC breast carcinomas and 186277-243-T-J2-PDC and 233499-124-R-J2-PDC colon carcinomas were obtained from the NCI Patient-Derived Models Repository (PDMR, https://pdmr.cancer.gov). The established cell lines NCI/ADR-RES (RRID:CVCL_14520 and OVCAR-5 (RRID:CVCL_1628) ovarian carcinomas, 786-O (RRID:CVCL_1051) and A498 (RRID:CVCL_A498) renal cell carcinoma, NCI-H211 (ATCC, cat. CRL-5824; RRID:CVCL_1529), NCI-H196 (ATCC, cat. CRL-5823, RRID:CVCL_1509), SW 1271 (ATCC, cat. CRL-2177, RRID:CVCL_1716) and NCI-H1876 (ATCC, cat. CRL-5902, RRID:CVCL_1503) small cell lung carcinomas, MDA-MB-231 (RRID:CVCL_0062) and MDA-MB-468 (RRID:CVCL_0419)breast carcinomas (10-12). Pooled donor human umbilical vein endothelial cells (HUVEC, Lonza, cat. CC-2519) and human mesenchymal stem cells (hMSC, Lonza, cat. PT-2501) were purchased from Lonza (Walkersville, MD).
Cell Culture. All cells were maintained in an incubator at 37 degrees C and 5% CO2 with 95% humidity. The PDC lines were cultured according to standard operating procedures established by the NCI PDMR (https://pdmr.cancer.gov). Briefly all PDCs were thawed and cultured in Matrigel-coated flasks prepared with a working solution of 1X Ham's F-12 nutrient mix, without supplementation (Invitrogen, Waltham, MA, cat. 11765054), 100 U/mL penicillin-streptomycin (Invitrogen, cat. 15140122), and 2.5% Matrigel (Corning Inc., Corning, NY, cat. 354248) for the first three passages. […]
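Further: spheroids exposed to agents for 7 days after 3 days growth.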

Structure (SMILES): CC(C)c1c(-c2ccccc2)nc2c(C#N)c[nH]n2c1=O
- viability, T/C (compound 0.0316 µM): 95.8% and 97.3%
- viability, T/C (compound 0.1 µM): 92.4% and 99.1%
- viability, T/C (compound 0.316 µM): 87.7% and 97.2%
- viability, T/C (compound 1 µM): 89.9% and 88%
- viability, T/C (compound 3.16 µM): 94% and 67.1%
- viability, T/C (compound 10 µM): 95.2% and 19.2%
- IC50: > 10 µM and 4.75 µM

Structure (SMILES): CC1(C)CCC(CN2CCN(c3ccc(C(=O)NS(=O)(=O)c4ccc(NCC5CCOCC5)c([N+](=O)[O-])c4)c(Oc4cnc5[nH]ccc5c4)c3)CC2)=C(c2ccc(Cl)cc2)C1
- viability, T/C (compound 0.0316 µM): 93.7% and 93.8%
- viability, T/C (compound 0.1 µM): 87% and 96.2%
- viability, T/C (compound 0.316 µM): 93% and 86.7%
- viability, T/C (compound 1 µM): 77% and 58.6%
- viability, T/C (compound 3.16 µM): 37.4% and 21.2%
- viability, T/C (compound 10 µM): 3.33% and 4.05%
- IC50: 2.2 µM and 1.31 µM

Structure (SMILES): CC1COCCN1c1cc(-c2ccnn2C)c2ccnc(-c3ccn[nH]3)c2n1 (configuration not stated)
- viability, T/C (compound 0.00316 µM): 55.2% and 49.8%
- viability, T/C (compound 0.01 µM): 41.7% and 43.5%
- viability, T/C (compound 0.0316 µM): 15.5% and 21.5%
- viability, T/C (compound 0.1 µM): 7.25% and 9.16%
- viability, T/C (compound 0.316 µM): 6.43% and 6.74%
- viability, T/C (compound 1 µM): 5.29% and 6.58%
- IC50: 0.00491 µM and < 0.00316 µM

Structure (SMILES): CC1COCCN1c1cc(C2(S(C)(=N)=O)CC2)nc(-c2ccnc3[nH]ccc23)n1 (configuration not stated)
- viability, T/C (compound 0.0316 µM): 94.6% and 94.9%
- viability, T/C (compound 0.1 µM): 89.5% and 95.9%
- viability, T/C (compound 0.316 µM): 98.2% and 91.3%
- viability, T/C (compound 1 µM): 73% and 58.9%
- viability, T/C (compound 3.16 µM): 17.2% and 21.2%
- viability, T/C (compound 10 µM): 8.54% and 9.3%
- IC50: 1.61 µM and 1.33 µM

Structure (SMILES): CC[C@@]1(O)C(=O)OCc2c1cc1n(c2=O)Cc2cc3c(CN(C)C)c(O)ccc3nc2-1
- viability, T/C (compound 0.000316 µM): 90.9% and 99.1%
- viability, T/C (compound 0.001 µM): 116% and 105%
- viability, T/C (compound 0.00316 µM): 129% and 84.4%
- viability, T/C (compound 0.01 µM): 64.3% and 70.4%
- viability, T/C (compound 0.0316 µM): 67.5% and 66%
- viability, T/C (compound 0.1 µM): 46.6% and 37.6%
- IC50: > 0.1 µM and 0.0552 µM

Structure (SMILES): COc1cc(C2c3cc4c(cc3C(OC3OC5COC(C)OC5C(O)C3O)C3COC(=O)C23)OCO4)cc(OC)c1O (configuration not stated)
- viability, T/C (compound 0.00949 µM): 97.7% and 100%
- viability, T/C (compound 0.03 µM): 121% and 90%
- viability, T/C (compound 0.0949 µM): 78.5% and 72.5%
- viability, T/C (compound 0.3 µM): 51.8% and 64.3%
- viability, T/C (compound 0.949 µM): 32.6% and 49.3%
- viability, T/C (compound 3 µM): 17.2% and 29.7%
- IC50: 0.315 µM and 0.775 µM

The next lines start with results.

- IC50: < 0.000316 µM
Structure (SMILES): CC(C)CC(NC(=O)C(Cc1ccccc1)NC(=O)c1cnccn1)B(O)O (configuration not stated)
- viability, T/C (compound 0.000316 µM): 9.71% and 22.8%
- viability, T/C (compound 0.001 µM): 1.12% and 20.1%
- viability, T/C (compound 0.00316 µM): 0.41% and 17.8%
- viability, T/C (compound 0.01 µM): 0.25% and 10.1%
- viability, T/C (compound 0.0316 µM): 0.24% and 12%
- viability, T/C (compound 0.1 µM): 0.17% and 6.28%

- IC50: 0.00302 µM and 0.00119 µM
Structure (SMILES): CC(C)CC(NC(=O)CNC(=O)c1cc(Cl)ccc1Cl)B1OC(=O)CC(CC(=O)O)(C(=O)O)O1 (configuration not stated)
- viability, T/C (compound 0.000316 µM): 91.2% and 75.3%
- viability, T/C (compound 0.001 µM): 105% and 52.1%
- viability, T/C (compound 0.00316 µM): 48% and 33.7%
- viability, T/C (compound 0.01 µM): 12.6% and 17.4%
- viability, T/C (compound 0.0316 µM): 3.28% and 13.3%
- viability, T/C (compound 0.1 µM): 0.97% and 15.7%

- IC50: 2.76 µM and 1.95 µM
Structure (SMILES): CCN(c1cc(-c2ccc(CN3CCOCC3)cc2)cc(C(=O)NCc2c(C)cc(C)[nH]c2=O)c1C)C1CCOCC1
- viability, T/C (compound 0.00949 µM): 81.1% and 94.4%
- viability, T/C (compound 0.03 µM): 86.6% and 102%
- viability, T/C (compound 0.0949 µM): 92.5% and 86.2%
- viability, T/C (compound 0.3 µM): 102% and 82.3%
- viability, T/C (compound 0.949 µM): 89.9% and 64.9%
- viability, T/C (compound 3 µM): 46.9% and 40.9%

- IC50: 0.0018 µM and < 0.000949 µM
Structure (SMILES): CCc1c2c(nc3ccc(O)cc13)-c1cc3c(c(=O)n1C2)COC(=O)[C@]3(O)CC
- viability, T/C (compound 0.000949 µM): 59.6% and 33.9%
- viability, T/C (compound 0.003 µM): 43% and 40.4%
- viability, T/C (compound 0.00949 µM): 26.6% and 22%
- viability, T/C (compound 0.03 µM): 19.3% and 18.7%
- viability, T/C (compound 0.0949 µM): 10.9% and 21%
- viability, T/C (compound 0.3 µM): 6.24% and 21.4%

- IC50: > 1 µM and 0.384 µM
Structure (SMILES): COc1cc(Nc2ncc3c(n2)-c2ccc(Cl)cc2C(c2c(F)cccc2OC)=NC3)ccc1C(=O)O
- viability, T/C (compound 0.00316 µM): 91.6% and 57%
- viability, T/C (compound 0.01 µM): 85.9% and 64.4%
- viability, T/C (compound 0.0316 µM): 84.5% and 63.2%
- viability, T/C (compound 0.1 µM): 89% and 58.9%
- viability, T/C (compound 0.316 µM): 80.6% and 54.1%
- viability, T/C (compound 1 µM): 51.5% and 30.1%
